Assay results published in patent US11970712B2, “Midbrain dopamine (DA) neurons for engraftment” (MEMORIAL SLOAN-KETTERING CANCER CENTER, priority 2011, dated 2024).

Experiments:
[1] = system: rosette stage cells; assay: Rosette-based DA neuron induction culture; assay type: cell-based, human; settings: concentration suitable for patterning floor plate cells
Excerpt: Both protocols used dual-SMAD inhibition to accelerate neural fate acquisition. LDN was used for BMP inhibition in the floor plate protocol while the traditional noggin induction was used for rosette cultures. The abbreviations are: LDN: LDN-193189, SB: SB431542, SHH (purmorphamine+SHH C25II), FGF8: FGF8, BAGCT: BDNF+ascorbic acid+GDNF+dbcAMP+TGFβ3. SHH/FGF8 in the rosette protocol used SHH C25I alone in the absence of purmorphamine following the initial recommendation for patterning of rosette-derived DA neuron cultures. […] BASF: BDNF+ascorbic acid+SHH/FGF8.
For rosette-based DA neuron induction previously described protocols were followed in part (Perrier, et al. Proc Natl Acad Sci USA 101:12543-8 (2004), herein incoropoated by reference) with at least one exception where dual-SMAD inhibition was used to accelerate the initial neural induction step. In brief, hESCs were induced towards neural fate by coculture with irradiated MS5 cells in KSR supplemented with SB431542 and Noggin (250 ng/ml (ranging in concentration from 10-1000 ng/ml); R&D), from day 2-8 and SHH+FGF8 from day 6-11 of differentiation. After 11 days in KSR, neural rosettes were manually isolated and cultured (P1 stage) in N2 medium supplemented with SHH, FGF8, BDNF and AA as described previously (Perrier, et al. Proc Natl Acad Sci USA 101:12543-8 (2004), herein incorporated by reference). […]

[2] = system: PD-iPSC and control iPSC derived cells; assay: Cell viability assay with alamar-blue, dose response for toxin challenge; assay type: cell-based, human; settings: 48 hrs, 5 and 10 uM, day 60
Excerpt: (§1) Note: this assay tests for overall cell death while the most dramatic effects were observed specifically in DA neurons (see FIG. 14). Therefore, alamar blue based quantification will likely underestimate the extent of the differential effect observed on DA neuron lineages.
as §1, with “Exemplary quantification of cell viability—dose response assay for toxin challenge. […] Note:” for “Note:”
as §1, with “Exemplary quantification of cell viability-dose response assay for toxin challenge. […] Note:” for “Note:”

[3] = system: PINK1 mutant PD-iPSC derived TH+ DA neurons; assay: Toxin challenge, TH immunocytochemistry; assay type: cell-based, human
Procedure: (§2) PD-iPSC derived TH+ DA neurons derived via the floor-plate based protocols of the present inventions were more vulnerable to toxin challenge (valinomycin: mitochondria ionophore, 5 uM, 48 hr) than control-iPSC derived cells. […] G-H) low power images of immunocytochemistry for Tuj1 (red) and TH (green) by floor-plate based protocol at day 60 of differentiation: PD-iPSC of normal (G), versus toxin challenge (H) conditions and control iPSC of normal (I), versus toxin challenge (J) conditions. K-N) low power images of immunocytochemistry for Tuj1 (red) and TH (green) by MS5 based protocol at day 60 of differentiation: PD-iPSC of normal (K), versus toxin challenge (L) conditions and control iPSC of normal (M), versus toxin challenge (N) conditions.
(§3) E. DA neurons derived from genetic PD-iPS cells are more vulnerable to toxic stimulation. FIG. 24-25. PD-iPSC derived TH+DA neurons derived via floor-plate based protocol were more vulnerable to toxin challenge (valinomycin: mitochondria ionophore, 5 uM (ranging in concentration from 1-10 uM), 48 hr) than control-iPSC derived cells. […] Normal condition both of PD- and control-iPSC derived cultures obtained via MS5 based protocol (D, PD-iPSC derived cells shown), TH+ neurons following toxin challenge in PD-iPSC (E), and control-iPSC derived cultures (F) obtained via MS5 protocol. G-H) low power images of immunocytochemistry for Tuj1 (red) and TH (green) by floor-plate based protocol at day 60 of differentiation: PD-iPSC of normal (G), versus toxin challenge (H) conditions and control iPSC of normal (I), versus toxin challenge (J) conditions. K-N) low power images of immunocytochemistry for Tuj1 (red) and TH (green) by MS5 based protocol at day 60 of differentiation: PD-iPSC of normal (K), versus toxin challenge (L) conditions and control iPSC of normal (M), versus toxin challenge (N) conditions. F.
(§4) Exemplary DA neurons derived from PINK1 mutant PD-iPSC are more vulnerable to toxic stimulation. […]

[4] = system: control-iPSC derived TH+ DA neurons; assay: Toxin challenge, TH immunocytochemistry; assay type: cell-based, human; settings: 5 uM, 48 hr, floor-plate protocol, day 60
Procedure: as §2, §3, §4

[5] = system: rodent GSK3β homologs; settings: cited from earlier work
[6] = system: hESC; assay: Immunocytochemistry, percentage of marker positive cells in differentiating cultures; assay type: cell-based, human
Procedure: (§5) Immunohistochemistry: Cells were fixed in 4% PFA and blocked with 1% bovine serum albumin (BSA) with 0.3% Triton. Brain tissue sections were washed in cold PBS and processed similarly. Primary antibodies were diluted in 1-5% BSA or Normal Goat Serum and incubated according to manufacturer recommendations. A comprehensive list of antibodies and sources is provided as Table 6. Appropriate Alexa488, Alexa555 and Alexa647-conjugated secondary antibodies (Molecular Probes, Carlsbad, California) were used with 4′,6-diamidino-2-phenylindole (DAPI) nuclear counterstain (Thermo Fisher, Rockford, Illinois). For some analyses biotinylated secondary antibodies were used followed by visualization via DAB (3,3′-Diaminobenzidine) chromogen.
Cell Counts and Stereological Analyses. The percentages of marker positive cells at the floor plate (day 11) FIG. 1, midbrain dopamine neuron precursor (day 25), FIG. 2 and mature DA neuron stages (day 50 or later) FIGS. 3 and 11, were determined in samples derived from at least 3 independent experiments each. Images for quantification were selected in a uniform random manner and each image was scored first for the number of DAPI-positive nuclei, followed by counting the number of cells expressing the marker of interest. Data are presented as mean±SEM. Quantification of human cells (identified with anti-hNA) and TH+ neurons within grafts was performed on every tenth section where a graft was identifiable. Cell counts and graft volume was determined using the optical fractionator's probe and the Cavalieri estimator using the Stereo Investigator software (MBF bioscience, Vermont) as described previously in Tabar, et al. Nat. Biotechnol. 23:601-606 (2005), herein incorporated by reference. Data are presented as estimated total cell number and total graft volume+/−standard error of means (SEM).
as §5, with “chromogen. HPLC” for “chromogen.”
Analysis. Reversed-phase HPLC with electrochemical detection for measuring levels of dopamine, Homovanillic acid (HVA) and DOPAC (3,4-Dihydroxy-Phenylacetic Acid) was performed as described previously (Roy, et al. Nature Med. 12:1259-1268 (2006); Studer, et al. Brain Res. Bull. 41:143-150 (1996), all of which are herein incorporated by reference). Culture samples were collected in perchloric acid at day 65 of differentiation. For some experiments DA was measured directly in the medium using the same detection system but following aluminum extraction of dopamine and its metabolites using a commercially available kit as described previously (Studer, et al. Brain Res. Bull. 41:143-150 (1996), herein incorporated by reference). […]

c1ccc2c(Oc3nc(Nc4ccc(N5CCOCC5)cc4)c4ncn(C5CCCCC5)c4n3)cccc2c1 [Purmorphamine]
toxicity at rosette stage [1]: shows toxicity

CC(C)[C@@H]1NC(=O)[C@H](C)OC(=O)[C@@H](C(C)C)NC(=O)[C@@H](C(C)C)OC(=O)[C@H](C(C)C)NC(=O)[C@H](C)OC(=O)[C@@H](C(C)C)NC(=O)[C@@H](C(C)C)OC(=O)[C@H](C(C)C)NC(=O)[C@H](C)OC(=O)[C@@H](C(C)C)NC(=O)[C@@H](C(C)C)OC1=O [valinomycin]
cell survival PD-iPSC versus control iPSC [2]: differential cell survival
degeneration of TH+ DA neurons ([3]; 5 uM, 48 hr, floor-plate protocol, day 60): nearly complete degeneration
vulnerability of PD- versus control-derived TH+ neurons ([3]; classic MS5 based protocol): did not show differential vulnerability
degeneration of TH+ DA neurons [4]: partially degenerated

Cc1c[nH]c(-c2cnc(NCCNc3ccc(C#N)cn3)nc2-c2ccc(Cl)cc2Cl)n1 [CHIR99021, 6-(2-(4-(2,4-dichlorophenyl)-5-(4-methyl-1H-imidazol-2-yl)pyrimidin-2-ylamino)ethylamino)nicotinonitrile]
IC50 against rodent GSK3β homologs [5]: nanomolar
potency at inducing LMX1A expression compared with recombinant Wnt3A or Wnt1 [6]: more potent
timing of exposure giving maximum LMX1A induction [6]: day 3-11
LMX1A induction in FOXA2+ floor plate precursors ([6]; day 11): induced LMX1A
co-expression of FOXA2/LMX1A ([6]; day 11): induced co-expression

B1: FGF8: Fibroblast growth factor 8 (protein, UniProt P55075 23-233, looked up)
Fibroblast growth factor 8: QEGPGRGPALGRELASLFRAGREPQGVSQQHVREQSLVTDQLSRRLIRTYQLYSRTSGKHVQVLANKRINAMAEDGDPFAKLIVETDTFGSRVRVRGAETGLYICMNKKGKLIAKSNGKGKDCVFTEIVLENNYTALQNAKYEGWYMAFTRKGRPRKGSKTRQHQREVHFMKRLPRGHHTTEQSLRFEFLNYPPFTRSLRGSQRTWAPEPR
co-expression of FOXA2/LMX1A ([6]; day 11): only marginal effects
